Assay results: ChEMBL document CHEMBL6092194, “Development of membrane-targeting chalcone derivatives as antibacterial agents against multidrug-resistant bacteria” (Eur J Med Chem, 2024)

Columns and labels:
Staphylococcus aureus [1] = test: Antibacterial activity against erythromycin susceptible Staphylococcus aureus ATCC25923 by broth microdilution assay; format: functional
Staphylococcus aureus [2] = test: Antibacterial activity against penicillin-resistant Staphylococcus aureus ATCC31007 by broth microdilution assay; format: functional
Staphylococcus aureus [3] = test: Antibacterial activity against penicillin-resistant Staphylococcus aureus ATCC43300 by broth microdilution assay; format: functional
Bacillus subtilis = test: Antibacterial activity against penicillin-susceptible Bacillus subtilis ATCC9372 by broth microdilution assay; format: functional
Enterococcus faecalis = test: Antibacterial activity against vancomycin susceptible Enterococcus faecalis ATCC29212 by broth microdilution assay; format: functional
[4] = system: Staphylococcus epidermidis; test: Antibacterial activity against erythromycin-susceptible Staphylococcus epidermidis ATCC12228 by broth microdilution assay; format: functional
Klebsiella pneumoniae = test: Antibacterial activity against Klebsiella pneumoniae ATCC10031 by broth microdilution assay; format: functional
Acinetobacter baumannii = test: Antibacterial activity against Acinetobacter baumannii ATCC19606 by broth microdilution assay; format: functional
Escherichia coli = test: Antibacterial activity against penicillin-susceptible Escherichia coli ATCC25922 by broth microdilution method; format: functional
Pseudomonas aeruginosa = test: Antibacterial activity against penicillin-susceptible Pseudomonas aeruginosa ATCC27853 by broth microdilution method; format: functional
[5] = Hemolytic activity in red blood cells (unknown origin); format: toxicity, cell-based, Erythrocyte
[6] = Selectivity index, ratio of HC50 for hemolytic activity in red blood cells (unknown origin) to MIC for antibacterial activity against penicillin-resistant Staphylococcus aureus ATCC43300; format: toxicity, cell-based, RBC; conditions: read-out: Selectivity Index
[7] = Selectivity index, ratio of HC50 for hemolytic activity in red blood cells (unknown origin) to MIC for antibacterial activity against penicillin-susceptible Escherichia coli ATCC25922; format: toxicity, cell-based, RBC; conditions: read-out: Selectivity Index

SMILES	MIC (Staphylococcus aureus [1]) [µg/mL]	MIC (Staphylococcus aureus [2]) [µg/mL]	MIC (Staphylococcus aureus [3]) [µg/mL]	MIC (Bacillus subtilis) [µg/mL]	MIC (Enterococcus faecalis) [µg/mL]	MIC [4] [µg/mL]	MIC (Klebsiella pneumoniae) [µg/mL]	MIC (Acinetobacter baumannii) [µg/mL]	MIC (Escherichia coli) [µg/mL]	MIC (Pseudomonas aeruginosa) [µg/mL]	HC50 [5] [µg/mL]	selectivity ratio [6]	selectivity ratio [7]
CCCCCC[N+](C)(C)CCCCCCCOc1ccc(C(=O)/C=C/c2ccccc2)cc1.[Br-]	2	4	4	2	4	2	16	16	> 128	> 128	61.6	15.4	
CCCC[N+](C)(C)CCCCCCCOc1ccc(C(=O)/C=C/c2ccccc2)cc1.[Br-]	8	16	8	32	32	16	32	64	> 128	> 128	130	16.3	
CCCCCC[N+](C)(C)CCCCCOc1ccc(C(=O)/C=C/c2ccccc2)cc1.[Br-]	2	16	16	8	16	8	32	64	> 128	> 128	112	7	
CCCCCCCCCCCC[N+](C)(C)CCCCCOc1ccc(C(=O)/C=C/c2ccccc2)cc1.[Br-]	8	16	8	8	16	8	> 128	128	> 128	> 128	167	20.9	
COc1ccc(CC(=O)Nc2cc[n+](CCCOc3ccc(C(=O)/C=C/c4ccccc4)cc3)cc2)cc1.[Br-]	8	16	8	16	16	128	64	128	128	> 128	724	90.5	
CCCCCCCC[N+](C)(C)CCCCCCCOc1ccc(C(=O)/C=C/c2ccccc2)cc1.[Br-]	2	4	2	2	4	2	8	32	128	> 128	105	52.6	
O=C(/C=C/c1ccccc1)c1ccc(OCCC[n+]2ccc(NC(=O)c3ccc4ccccc4c3)cc2)cc1.[Br-]	> 128	> 128	> 128	> 128	> 128	> 128	> 128	> 128	> 128	> 128	> 1280	> 10	
CCCCCCCCOc1cc[n+](CCCOc2ccc(/C=C/C(=O)c3ccc(OCCC[n+]4ccc(OCCCCCCCC)cc4)cc3)cc2)cc1.[Br-].[Br-]	64	64	32	64	64	32	64	128	128	128	180	5.6	
CCCCCCCCCCCC[N+](C)(C)CCCOc1ccc(/C=C/C(=O)c2ccc(OCCC[N+](C)(C)CCCCCCCCCCCC)cc2)cc1.[Br-].[Br-]	16	16	> 128	> 128	> 128	64	> 128	> 128	> 128	> 128	21.2	< 0.2	
CCCCCCCC(=O)Nc1cc[n+](CCCOc2ccc(C(=O)/C=C/c3ccccc3)cc2)cc1.[Br-]	2	2	2	2	4	8	16	128	32	> 128	887	443	
CCCCCCCC[N+](C)(C)CCCOc1ccc(/C=C/C(=O)c2ccc(OCCC[N+](C)(C)CCCCCCCC)cc2)cc1.[Br-].[Br-]	1	1	1	1	2	1	16	32	4	16	129	129	
CCCCCCCCCC[N+](C)(C)CCCCCOc1ccc(C(=O)/C=C/c2ccccc2)cc1.[Br-]	4	4	4	4	4	8	16	16	64	> 128	42	10.5	
CCCCCCCC[N+](C)(C)CCCOc1ccc(C(=O)/C=C/c2ccccc2)cc1.[Br-]	1	4	1	2	8	1	4	8	64	64	17.2	17.2	
CCCCCCCCCC[N+](C)(C)CCCCCCCOc1ccc(C(=O)/C=C/c2ccccc2)cc1.[Br-]	4	8	4	4	8	4	32	128	> 128	> 128	50.5	12.6	
CCCCCC[N+](C)(C)CCCOc1ccc(/C=C/C(=O)c2ccc(OCCC[N+](C)(C)CCCCCC)cc2)cc1.[Br-].[Br-]	1	1	1	0.5	1	0.5	4	16	4	32	1130	1130	283
CCCC[N+](C)(C)CCCCCOc1ccc(C(=O)/C=C/c2ccccc2)cc1.[Br-]	8	64	32	32	32	16	64	128	> 128	> 128	538	16.8	
CC(C)=CC(=O)Nc1cc[n+](CCCOc2ccc(C(=O)/C=C/c3ccccc3)cc2)cc1.[Br-]	> 128	> 128	> 128	> 128	> 128	> 128	> 128	> 128	> 128	> 128	> 1280	> 10	
